We go through 22 compounds from patent US12378224B2 (Dong-A Socio Holdings Co., Ltd., priority 2016, dated 2025).

One test has as its target human MER (528-end) (Homo sapiens (Human), UniProt Q12866). Put plainly: HTRF Kinase Activity Biochemical Assay (KinEASE-TK). The settings on record: 10 uM ATP. In a few lines: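 Activity read-out is the HTRF ratio (665 nm over 620 nm emission, ×10,000; excitation 340 nm) after 1 h detection with 0.375 nM Eu3+-cryptate anti-TK antibody plus 0.062 uM SA-XL665. Preceding kinase step: human MER (528-end), biotinylated TK substrate, 1 h, room temperature.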

Test [1] concerns the target BCR fusion to kinase domain of MerTK (Ba/F3-MerTK) (Homo sapiens, UniProt Q12866). Nature of the test: In Cell TAM Kinase Assay Using BaF3 Cellular System. In kind it is cell-based, murine. To be noted: Ba/F3 BCR-kinase fusion proliferation, 72 hours, Cell Titer Glo, kinase not given. The text has this:
Three Ba/F3 cell lines (a murine IL-3 dependent pro-B cell line) expressing BCR fusions to the kinase domains of either MerTK (Ba/F3-MerTK), Axl (Ba/F3-Axl), or Tyro3 (Ba/F3-Tyro3) were purchased from Advanced Cellular Dynamics. The IL-3 independence of all 3 cell lines was confirmed. After thawing, the 3 Ba/F3 cell lines were split and maintained in cell culture media, which consisted of RPMI-1640-HEPES (Thermo-Cat #22400-089) with 1× Glutamax (Thermo-Cat #35050-061) and 10% FBS (Sigma-Cat #F4135 (500 ml), at a cell density range of 0.05×10^6−1×10^6 cells/mL 4 days before used in the routine screen. Compound plates were prepared using Nunc™ white 384-well optical bottom plates (ThermoFisher, USA) with compound in 25 nL dimethyl sulfoxide in each well. For routine assays, each of the 3 Ba/F3 cell lines was seeded at 1,000 cells per well with 25 µL of cell culture media directly into 384-well compound plates and incubated for 72 hours. Cell proliferation was then measured by adding 25 μL of Cell Titer Glo 2.0 (Promega, USA). After incubating with Cell Titer Glo at room temperature for 30 mins, the luminescence intensity, which quantifies the cell viability, was measured using an Envision™ plate reader (PerkinElmer, USA). […] In the presence of IL-3, the proliferation of the Ba/F3-Tyro3 cells is no longer dependent on the Tyro3 kinase activity.

Read-outs that look alike come from different tables or passages of the source.

human MER (528-end), sequence (Q12866 528-999 limits assumed): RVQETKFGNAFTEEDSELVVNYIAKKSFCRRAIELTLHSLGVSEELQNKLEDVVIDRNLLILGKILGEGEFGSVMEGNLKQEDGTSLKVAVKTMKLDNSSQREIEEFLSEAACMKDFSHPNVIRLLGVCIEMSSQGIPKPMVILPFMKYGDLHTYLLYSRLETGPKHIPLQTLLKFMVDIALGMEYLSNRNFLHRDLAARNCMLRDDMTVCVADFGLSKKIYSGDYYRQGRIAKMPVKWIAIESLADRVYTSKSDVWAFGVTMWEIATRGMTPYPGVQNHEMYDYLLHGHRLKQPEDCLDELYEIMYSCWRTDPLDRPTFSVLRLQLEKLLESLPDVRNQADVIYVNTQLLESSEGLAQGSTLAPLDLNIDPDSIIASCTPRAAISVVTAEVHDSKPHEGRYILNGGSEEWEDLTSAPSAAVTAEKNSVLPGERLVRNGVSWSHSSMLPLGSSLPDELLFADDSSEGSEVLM
BCR fusion to kinase domain of MerTK (Ba/F3-MerTK), sequence (Q12866 21-999 limits assumed, stated change not applied): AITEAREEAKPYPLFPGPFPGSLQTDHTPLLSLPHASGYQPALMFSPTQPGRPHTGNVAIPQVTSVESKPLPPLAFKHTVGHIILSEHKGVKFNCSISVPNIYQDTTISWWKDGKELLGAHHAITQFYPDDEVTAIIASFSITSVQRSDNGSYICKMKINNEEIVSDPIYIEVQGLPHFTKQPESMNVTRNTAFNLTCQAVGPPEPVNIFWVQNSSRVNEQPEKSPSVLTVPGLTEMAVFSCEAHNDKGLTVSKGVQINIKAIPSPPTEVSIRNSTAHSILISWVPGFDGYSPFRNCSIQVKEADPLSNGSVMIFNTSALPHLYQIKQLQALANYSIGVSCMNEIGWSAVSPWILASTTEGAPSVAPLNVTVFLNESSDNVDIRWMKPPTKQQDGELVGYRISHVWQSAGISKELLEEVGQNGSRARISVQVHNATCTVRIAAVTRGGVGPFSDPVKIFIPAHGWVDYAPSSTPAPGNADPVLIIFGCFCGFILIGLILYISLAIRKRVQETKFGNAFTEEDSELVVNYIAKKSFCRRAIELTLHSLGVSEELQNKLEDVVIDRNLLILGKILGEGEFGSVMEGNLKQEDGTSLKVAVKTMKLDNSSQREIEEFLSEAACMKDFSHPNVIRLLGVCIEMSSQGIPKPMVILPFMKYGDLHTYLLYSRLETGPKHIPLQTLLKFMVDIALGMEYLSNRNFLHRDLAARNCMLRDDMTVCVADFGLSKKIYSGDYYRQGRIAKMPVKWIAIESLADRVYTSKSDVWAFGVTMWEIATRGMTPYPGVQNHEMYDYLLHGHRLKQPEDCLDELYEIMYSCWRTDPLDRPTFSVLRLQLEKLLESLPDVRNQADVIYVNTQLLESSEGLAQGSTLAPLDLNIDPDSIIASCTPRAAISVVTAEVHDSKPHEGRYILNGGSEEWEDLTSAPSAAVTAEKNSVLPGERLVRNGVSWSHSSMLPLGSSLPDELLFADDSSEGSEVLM

On to `Cn1cc(-c2cnc(N)c(C(=O)N[C@@H]3CCN(C(=O)c4ccc(-c5ccc(C(=O)N6CCC(=O)CC6)cc5)cc4)C3)c2)cn1` [Example 679, (R)-2-amino-5-(1-methyl-1H-pyrazol-4-yl)-N-(1-(4′-(4-oxopiperidine-1-carbonyl)-[1,1′-biphenyl]-4-carbonyl)pyrrolidin-3-yl)nicotinamide], for which the IC50 (on human MER (528-end); in test [1]) was > 1000 nM in each case.

With `Cn1cc(-c2cnc(N)c(C(=O)N[C@@H]3CCN(C(=O)c4cc5ccccc5n4C)C3)c2)cn1` [Example 695, (R)-2-amino-N-(1-(1-methyl-1H-indole-2-carbonyl)pyrrolidin-3-yl)-5-(1-methyl-1H-pyrazol-4-yl)nicotinamide], the IC50 (against human MER (528-end); in test [1] (read-out: IC50)) was > 1000 nM throughout.

Regarding `Cn1cc(-c2cnc(N)c(C(=O)N[C@@H]3CCN(C(=O)c4cc5cc(F)ccc5[nH]4)C3)c2)cn1` [Example 696, (R)-2-amino-N-(1-(5-fluoro-1H-indole-2-carbonyl)pyrrolidin-3-yl)-5-(1-methyl-1H-pyrazol-4-yl)nicotinamide], the IC50 (on human MER (528-end); in test [1] (read-out: IC50)) was > 1000 nM in each case.

Take `Cn1cc(-c2cnc(N)c(C(=O)N[C@@H]3CCN(C(=O)c4cc5ccccc5[nH]4)C3)c2)cn1` [Example 697, (R)—N-(1-(1H-indole-2-carbonyl)pyrrolidin-3-yl)-2-amino-5-(1-methyl-1H-pyrazol-4-yl)nicotinamide]: the 50% inhibitory concentration (IC50) (at human MER (528-end); in test [1] (read-out: IC50)) was > 1000 nM in each case.

In the case of `Cc1[nH]c2cc(C(=O)N3CC[C@@H](NC(=O)c4cc(-c5cnn(C)c5)cnc4N)C3)ccc2c1C` [Example 698, (R)-2-amino-N-(1-(2,3-dimethyl-1H-indole-6-carbonyl)pyrrolidin-3-yl)-5-(1-methyl-1H-pyrazol-4-yl)nicotinamide], the half-inhibitory concentration (IC50) at human MER (528-end) is 100 to 1000 nM; in test [1] (read-out: IC50), > 1000 nM.

In the case of `Cn1cc(-c2cnc(N)c(C(=O)N[C@@H]3CCN(C(=O)c4ccc5cccnc5n4)C3)c2)cn1` [Example 699, (R)—N-(1-(1,8-naphthyridine-2-carbonyl)pyrrolidin-3-yl)-2-amino-5-(1-methyl-1H-pyrazol-4-yl)nicotinamide], the half-maximal inhibitory concentration (IC50) (on human MER (528-end); in test [1] (read-out: IC50)) was > 1000 nM in each case.

As for `Cn1cc(-c2cnc(N)c(C(=O)N[C@@H]3CCN(C(=O)c4ccc5cnccc5n4)C3)c2)cn1` [Example 700, (R)—N-(1-(1,6-naphthyridine-2-carbonyl)pyrrolidin-3-yl)-2-amino-5-(1-methyl-1H-pyrazol-4-yl)nicotinamide], the IC50 (at human MER (528-end); in test [1] (read-out: IC50)) was > 1000 nM in each case.

Take `CCn1c(C(=O)N2CC[C@@H](NC(=O)c3cc(-c4cnn(C)c4)cnc3N)C2)cc2ccccc21` [Example 701, (R)-2-amino-N-(1-(1-ethyl-1H-indole-2-carbonyl)pyrrolidin-3-yl)-5-(1-methyl-1H-pyrazol-4-yl)nicotinamide]: the IC50 (against human MER (528-end); in test [1] (read-out: IC50)) was > 1000 nM each time.

For the compound `Cn1cc(-c2cnc(N)c(C(=O)N[C@@H]3CCN(C(=O)c4cc5ccccc5n4Cc4ccccc4)C3)c2)cn1` [Example 702, (R)-2-amino-N-(1-(1-benzyl-1H-indole-2-carbonyl)pyrrolidin-3-yl)-5-(1-methyl-1H-pyrazol-4-yl)nicotinamide], the concentration for half-maximal inhibition (IC50) (on human MER (528-end); in test [1] (read-out: IC50)) was > 1000 nM each time.

With `Cn1cc(-c2cnc(N)c(C(=O)N[C@@H]3CCN(C(=O)c4cc5c(C(F)(F)F)ccc(Cl)c5n4C)C3)c2)cn1` [Example 703, (R)-2-amino-N-(1-(7-chloro-1-methyl-4-(trifluoromethyl)-1H-indole-2-carbonyl)pyrrolidin-3-yl)-5-(1-methyl-1H-pyrazol-4-yl)nicotinamide], the concentration for half-maximal inhibition (IC50) (against human MER (528-end); in test [1] (read-out: IC50)) was > 1000 nM in each case.

Consider `Cn1cc(-c2cnc(N)c(C(=O)N[C@@H]3CCN(C(=O)c4cc5c(C(F)(F)F)ccc(Cl)c5[nH]4)C3)c2)cn1` [Example 704, (R)-2-amino-N-(1-(7-chloro-4-(trifluoromethyl)-1H-indole-2-carbonyl)pyrrolidin-3-yl)-5-(1-methyl-1H-pyrazol-4-yl)nicotinamide], for which the half-inhibitory concentration (IC50) (against human MER (528-end); in test [1] (read-out: IC50)) was > 1000 nM throughout.

On to `Cn1cc(-c2cnc(N)c(C(=O)N[C@@H]3CCN(C(=O)c4ccc5cc(O)ccc5c4)C3)c2)cn1` [Example 706, (R)-2-amino-N-(1-(6-hydroxy-2-naphthoyl)pyrrolidin-3-yl)-5-(1-methyl-1H-pyrazol-4-yl)nicotinamide], for which the figures for the 50% inhibitory concentration (IC50) (on human MER (528-end); in test [1] (read-out: IC50)) were 100 to 1000 nM and > 1000 nM, respectively.

On to `Cn1cc(-c2cnc(N)c(C(=O)N[C@@H]3CCN(C(=O)c4c[nH]c(=O)n(-c5ccc(F)cc5)c4=O)C3)c2)cn1` [Example 707, (R)-2-amino-N-(1-(3-(4-fluorophenyl)-2,4-dioxo-1,2,3,4-tetrahydropyrimidine-5-carbonyl)pyrrolidin-3-yl)-5-(1-methyl-1H-pyrazol-4-yl)nicotinamide], for which the half-inhibitory concentration (IC50) (at human MER (528-end); in test [1] (read-out: IC50)) was > 1000 nM each time.

With `Cn1cc(-c2cnc(N)c(C(=O)N[C@@H]3CCN(C(=O)c4cc5cc(Br)ccc5s4)C3)c2)cn1` [Example 708, (R)-2-amino-N-(1-(5-bromobenzo[b]thiophene-2-carbonyl)pyrrolidin-3-yl)-5-(1-methyl-1H-pyrazol-4-yl)nicotinamide], the half-maximal inhibitory concentration (IC50) against human MER (528-end) was in the range of 100 to 1000 nM; in test [1] (read-out: IC50), 500 to 1000 nM.

Consider `Cn1cc(-c2cnc(N)c(C(=O)N[C@@H]3CCN(C(=O)c4ccc5c(ccn5CC5CCNCC5)c4)C3)c2)cn1` [Example 709, (R)-2-amino-5-(1-methyl-1H-pyrazol-4-yl)-N-(1-(1-(piperidin-4-ylmethyl)-1H-indole-5-carbonyl)pyrrolidin-3-yl)nicotinamide], for which the IC50 against human MER (528-end) was 100 to 1000 nM; in test [1] (read-out: IC50), > 1000 nM.

As for `Cn1cc(-c2cnc(N)c(C(=O)N[C@@H]3CCN(C(=O)c4c[nH]c5ccccc45)C3)c2)cn1` [Example 710, (R)—N-(1-(1H-indole-3-carbonyl)pyrrolidin-3-yl)-2-amino-5-(1-methyl-1H-pyrazol-4-yl)nicotinamide], the IC50 (at human MER (528-end); in test [1] (read-out: IC50)) was > 1000 nM in each case.

With `Cn1cc(-c2cnc(N)c(C(=O)N[C@@H]3CCN(C(=O)c4ccc(-c5ccc(CN6CCOCC6)cc5)cc4)C3)c2)cn1` [Example 711, (R)-2-amino-5-(1-methyl-1H-pyrazol-4-yl)-N-(1-(4′-(morpholinomethyl)-[1,1′-biphenyl]-4-carbonyl)pyrrolidin-3-yl)nicotinamide], the half-inhibitory concentration (IC50) (against human MER (528-end); in test [1] (read-out: IC50)) was > 1000 nM each time.

Take `Cn1cc(-c2cnc(N)c(C(=O)N[C@@H]3CCN(C(=O)c4ccc(-c5cccc(-c6nnnn6C)c5)cc4)C3)c2)cn1` [Example 712, (R)-2-amino-5-(1-methyl-1H-pyrazol-4-yl)-N-(1-(3′-(1-methyl-1H-tetrazol-5-yl)-[1,1′-biphenyl]-4-carbonyl)pyrrolidin-3-yl)nicotinamide]: the figures for the IC50 (on human MER (528-end); in test [1] (read-out: IC50)) were 10 to 100 nM and 500 to 1000 nM, respectively.

On to `Cn1cc(-c2cnc(N)c(C(=O)N[C@@H]3CCN(C(=O)c4ccc(-c5cccc(-c6nnn[nH]6)c5)cc4)C3)c2)cn1` [Example 713, (R)—N-(1-(3′-(1H-tetrazol-5-yl)-[1,1′-biphenyl]-4-carbonyl)pyrrolidin-3-yl)-2-amino-5-(1-methyl-1H-pyrazol-4-yl)nicotinamide], for which the half-maximal inhibitory concentration (IC50) at human MER (528-end) was 100 to 1000 nM; in test [1] (read-out: IC50), > 1000 nM.

For `Cc1nc(-c2cccc(-c3ccc(C(=O)N4CC[C@@H](NC(=O)c5cc(-c6cnn(C)c6)cnc5N)C4)cc3)c2)no1` [Example 714, (R)-2-amino-N-(1-(3′-(5-methyl-1,2,4-oxadiazol-3-yl)-[1,1′-biphenyl]-4-carbonyl)pyrrolidin-3-yl)-5-(1-methyl-1H-pyrazol-4-yl)nicotinamide], the IC50 at human MER (528-end) is 10 to 100 nM; in test [1] (read-out: IC50), > 1000 nM.

With `Cn1cc(-c2cnc(N)c(C(=O)N[C@@H]3CCN(C(=O)c4ccc(Oc5ccccc5Cl)cc4)C3)c2)cn1` [Example 718, (R)-2-amino-N-(1-(4-(2-chlorophenoxy)benzoyl)pyrrolidin-3-yl)-5-(1-methyl-1H-pyrazol-4-yl)nicotinamide], the IC50 on human MER (528-end) fell in the range of 10 to 100 nM; in test [1] (read-out: IC50), 500 to 1000 nM.

With `CN1CCC(N(Cc2ccccc2)c2ccc3cc(C(=O)N4CC[C@@H](NC(=O)c5cc(-c6cnn(C)c6)cnc5N)C4)ccc3c2)CC1` [Example 720, (R)-2-amino-N-(1-(6-(benzyl(1-methylpiperidin-4-yl)amino)-2-naphthoyl)pyrrolidin-3-yl)-5-(1-methyl-1H-pyrazol-4-yl)nicotinamide], the concentration for half-maximal inhibition (IC50) on human MER (528-end) was 100 to 1000 nM; in test [1] (read-out: IC50), > 1000 nM.
